# Source: patent US10000498B2, “Selective proton coupled folate transporter and folate receptor, and GARFTase inhibitor compounds and methods of using the same” (Duquesne University of the Holy Spirit, priority 2008, dated 2018)
# Where two headings read alike, the source gives them in different places.
# Columns and labels:
# [1] = test system: R2/VC cells (vector control R2 CHO); test: Growth inhibition of vector control R2 CHO cells (Cell TiterBlue, 96 h); type: cell-based, Chinese hamster; conditions: Cricetulus griseus, read-out: Growth inhibition 50% inhibitory concentration, R2/VC
# [2] = test system: R2 CHO cells (hRFC- and FR-null); test: Growth inhibition of hRFC- and FR-null R2 CHO cells; type: cell-based, Chinese hamster; conditions: Cricetulus griseus, RPMI1640/10% dialyzed fetal bovine serum, mean of 2-3 experiments
# [3] = test system: KB human tumor cells (hRFC/FRα); test: Growth inhibition of KB human tumor cells (Cell Titer-blue cytotoxicity screen), with or without folic acid; type: cell-based
# [4] = molecular target: T1, purified recombinant mouse GARFTase (Mus musculus, UniProt Q64737); test: In vitro GARFTase inhibition assay; type: biochemical; conditions: purified recombinant mouse GARFTase; mean IC50, SEM in parentheses
# T1 sequence (Q64737 2-1010 limits assumed): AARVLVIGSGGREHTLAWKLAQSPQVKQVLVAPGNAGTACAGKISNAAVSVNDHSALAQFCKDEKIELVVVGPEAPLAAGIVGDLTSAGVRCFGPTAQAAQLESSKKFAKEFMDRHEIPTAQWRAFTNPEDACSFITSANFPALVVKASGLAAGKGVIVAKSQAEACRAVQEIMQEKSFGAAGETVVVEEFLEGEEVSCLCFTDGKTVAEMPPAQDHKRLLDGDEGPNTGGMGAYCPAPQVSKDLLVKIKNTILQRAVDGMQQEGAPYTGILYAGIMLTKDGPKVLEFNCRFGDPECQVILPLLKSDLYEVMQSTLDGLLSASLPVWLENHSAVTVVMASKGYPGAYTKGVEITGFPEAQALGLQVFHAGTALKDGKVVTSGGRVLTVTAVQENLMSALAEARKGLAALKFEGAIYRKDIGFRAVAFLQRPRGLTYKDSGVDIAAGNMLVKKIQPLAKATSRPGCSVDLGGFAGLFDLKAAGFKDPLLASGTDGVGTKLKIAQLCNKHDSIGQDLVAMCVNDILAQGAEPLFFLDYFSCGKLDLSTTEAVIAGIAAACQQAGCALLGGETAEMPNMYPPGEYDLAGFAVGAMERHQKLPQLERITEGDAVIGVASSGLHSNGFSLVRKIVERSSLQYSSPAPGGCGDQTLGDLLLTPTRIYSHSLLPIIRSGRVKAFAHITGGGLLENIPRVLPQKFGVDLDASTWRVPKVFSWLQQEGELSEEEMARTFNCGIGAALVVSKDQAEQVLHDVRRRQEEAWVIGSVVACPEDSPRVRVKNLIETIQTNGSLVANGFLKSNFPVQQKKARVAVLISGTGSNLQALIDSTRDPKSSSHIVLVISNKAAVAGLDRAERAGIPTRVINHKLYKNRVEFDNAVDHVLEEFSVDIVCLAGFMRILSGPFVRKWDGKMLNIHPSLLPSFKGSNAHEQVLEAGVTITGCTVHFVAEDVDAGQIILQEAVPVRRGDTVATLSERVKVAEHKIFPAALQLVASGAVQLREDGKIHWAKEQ
# FRα = FRα (Homo sapiens, UniProt P15328); test: FRα binding affinity relative to folic acid; conditions: folic acid set to 1
# GARFTase = molecular target: T2, GARFTase (Homo sapiens, UniProt P22102); test: In situ GARFTase assay (14C-glycine incorporation into formyl glycinamide ribonucleotide); type: cell-based; conditions: mean IC50, SEM in parentheses
# T2 construct: In the in situ GARFTase assay, incorporation of ^14C-glycine into formyl glycinamide ribonucleotide was measured; endogenous in cells
# T2 sequence (P22102 1-1010): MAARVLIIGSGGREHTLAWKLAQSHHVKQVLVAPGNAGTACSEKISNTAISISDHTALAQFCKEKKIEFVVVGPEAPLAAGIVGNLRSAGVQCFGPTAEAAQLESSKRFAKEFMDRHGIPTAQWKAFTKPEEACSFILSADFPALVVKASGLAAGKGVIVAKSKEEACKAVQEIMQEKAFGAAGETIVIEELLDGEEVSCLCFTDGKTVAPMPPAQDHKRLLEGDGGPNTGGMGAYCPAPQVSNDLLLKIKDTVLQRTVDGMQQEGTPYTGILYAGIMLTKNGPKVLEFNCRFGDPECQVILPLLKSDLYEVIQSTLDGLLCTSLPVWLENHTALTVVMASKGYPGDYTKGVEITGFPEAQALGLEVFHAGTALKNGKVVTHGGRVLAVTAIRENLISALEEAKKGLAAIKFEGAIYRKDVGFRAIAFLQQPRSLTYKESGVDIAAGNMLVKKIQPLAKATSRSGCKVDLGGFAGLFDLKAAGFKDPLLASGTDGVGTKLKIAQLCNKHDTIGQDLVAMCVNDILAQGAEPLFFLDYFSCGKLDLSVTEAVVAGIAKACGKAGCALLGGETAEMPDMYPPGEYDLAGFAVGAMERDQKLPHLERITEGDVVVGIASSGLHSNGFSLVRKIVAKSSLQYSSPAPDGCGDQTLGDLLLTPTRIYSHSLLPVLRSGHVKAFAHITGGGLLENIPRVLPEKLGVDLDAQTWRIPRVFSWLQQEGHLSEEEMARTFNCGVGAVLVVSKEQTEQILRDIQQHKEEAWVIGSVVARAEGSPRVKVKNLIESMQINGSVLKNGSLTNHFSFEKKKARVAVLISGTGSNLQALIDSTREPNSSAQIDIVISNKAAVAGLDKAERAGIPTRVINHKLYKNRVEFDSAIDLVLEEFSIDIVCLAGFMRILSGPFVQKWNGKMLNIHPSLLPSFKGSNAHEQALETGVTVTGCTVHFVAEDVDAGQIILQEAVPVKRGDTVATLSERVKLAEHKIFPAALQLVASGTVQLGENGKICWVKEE
# [5] = test system: RT16 cells (hFRα-expressing Chinese hamster ovary); test: Growth inhibition of FR-expressing RT16 CHO cells, with or without folic acid; type: cell-based; conditions: for IC50: Cricetulus griseus, RT16
# [6] = test system: PC43-10 cells (hRFC-expressing Chinese hamster ovary); test: Growth inhibition of hRFC-expressing PC43-10 CHO cells; type: cell-based
# [7] = in vivo; cited from earlier work
# [8] = mouse, in vivo; cited from earlier work
# [9] = molecular target: thymidylate synthase (TS) (Homo sapiens, UniProt P04818); conditions: cited from earlier work
# [10] = Homo sapiens, RPMI1640/10% dialyzed fetal bovine serum, without folic acid, read-out: Growth inhibition (IC50, nM) hRFC/FRα KB
# [11] = folate-free RPMI1640/10% dialyzed FBS, 25 nM leucovorin
# Sequence of thymidylate synthase (TS) (P04818 whole entry, species assumed): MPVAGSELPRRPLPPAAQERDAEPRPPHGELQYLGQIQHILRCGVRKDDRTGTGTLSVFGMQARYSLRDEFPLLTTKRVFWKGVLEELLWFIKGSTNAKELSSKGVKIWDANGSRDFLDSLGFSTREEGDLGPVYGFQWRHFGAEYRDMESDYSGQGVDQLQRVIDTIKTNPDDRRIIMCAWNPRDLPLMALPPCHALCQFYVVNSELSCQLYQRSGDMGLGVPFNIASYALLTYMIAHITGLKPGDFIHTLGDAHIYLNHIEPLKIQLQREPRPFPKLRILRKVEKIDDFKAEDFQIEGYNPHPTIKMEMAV
# Sequence of FRα (P15328 25-234): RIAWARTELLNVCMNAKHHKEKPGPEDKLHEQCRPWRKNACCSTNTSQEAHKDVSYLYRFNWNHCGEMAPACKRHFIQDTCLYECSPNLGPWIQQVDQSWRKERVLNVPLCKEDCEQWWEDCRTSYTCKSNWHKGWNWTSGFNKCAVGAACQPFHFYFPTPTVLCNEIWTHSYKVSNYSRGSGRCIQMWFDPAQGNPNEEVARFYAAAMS
compound,measurement,setting,value
"Nc1nc2[nH]cc(CCc3ccc(C(=O)N[C@@H](CCC(=O)O)C(=O)O)cc3)c2c(=O)[nH]1 [Pemetrexed, pemetrexed, reference compound]",IC50,[1],150 ± 22.5 nM
"Nc1nc2[nH]c(CCCCCc3ccc(C(=O)N[C@@H](CCC(=O)O)C(=O)O)s3)cc2c(=O)[nH]1 [AAG154360, (S)-2-({5-[5-(2-amino-4-oxo-4,7-dihydro-3H-pyrrolo[2,3-d]pyrimidin-6-yl)-pentyl]-thiophene-2-carbonyl}-amino)-pentanedioic acid]",IC50,[2],> 1000 nM
same,IC50,[3]; [10],3.4 nM
same,IC50,"[3]; Homo sapiens, co-treatment with folic acid (200 nM), read-out: Growth inhibition (IC50, nM) hRFC/FRα KB (+FA)",> 1000 nM
same,Effect of folic acid co-treatment on growth inhibition of KB cells,[3]; folic acid 200 nM,completely reversed growth inhibition
same,IC50,[4],3310 nM
same,FRα binding affinity compared to folic acid,FRα,very high binding affinities
same,IC50,GARFTase,7.65 nM
same,IC50,"[5]; RPMI1640/10% dialyzed fetal bovine serum, without folic acid, read-out: Growth inhibition (IC50, nM) hFRα RT16",2 nM
same,IC50,"[5]; in the presence of an elevated concentration of folic acid, read-out: Growth inhibition (IC50, nM) hFRα RT16 (+FA)",> 1000 nM
same,Growth inhibition / FR-targeted activity toward RT16 cells (in words),[5]; cells expressing FRα,high level of FR-targeted activity
same,IC50,"[6]; Cricetulus griseus, PC43-10, RPMI1640/10% dialyzed fetal bovine serum, mean of 2-3 experiments, read-out: Growth inhibition (IC50, nM) hRFC PC43-10",> 1000 nM
same,Growth inhibition of hRFC-expressing PC43-10 cells (in words),[6]; only RFC,Neither AAG154353 and AAG154360 showed appreciable growth inhibition
"CN(Cc1cnc2nc(N)nc(N)c2n1)c1ccc(C(=O)N[C@@H](CCC(=O)O)C(=O)O)cc1 [Methotrexate, methotrexate]",IC50,[1]; [11],> 1000 nM
"Nc1nc2[nH]c(CCC#Cc3ccc(C(=O)N[C@@H](CCC(=O)O)C(=O)O)s3)cc2c(=O)[nH]1 [AAG154468, (S)-2-({5-[4-(2-amino-4-oxo-4,7-dihydro-3H-pyrrolo[2,3-d]pyrimidin-6-yl)-but-1-ynyl]-thiophene-2-carbonyl}-amino)-pentanedioic acid]",IC50,[3]; [10],122 nM
same,melting point,,196 to 197 °C
"Nc1nc2c(c(=O)[nH]1)C[C@@H](CCc1ccc(C(=O)N[C@@H](CCC(=O)O)C(=O)O)cc1)CN2 [Lometrexol, lometrexol, reference compound]",IC50,[1],> 1000 nM
same,IC50,[4],780 nM
same,Toxicity in phase 1 studies,[7],severe myelosupression
"Cc1nc2ccc3ccc(CNc4ccc5c(c4)CN([C@@H](CCC(=O)O)C(=O)O)C5=O)cc3c2c(=O)[nH]1 [GW1843U89, reference compound]",IC50,"[3]; RPMI1640/10% dialyzed fetal bovine serum, without folic acid, read-out: Growth inhibition (IC50, nM) hRFC/FRα KB",5.8 nM
same,IC50,"[3]; co-treatment with folic acid (200 nM), read-out: Growth inhibition (IC50, nM) hRFC/FRα KB (+FA)",32 nM
C#CCN(c1ccc(C(=O)N[C@@H](CCC(=O)N[C@H](CCC(=O)O)C(=O)O)C(=O)O)cc1)[C@H]1CCc2cc3nc(CO)[nH]c(=O)c3cc21 [BGC945],Toxicity to normal tissues in mice,[8],no toxicity to normal tissues
same,Inhibition of thymidylate synthase (TS) within cells,[9],potently inhibit
C#CCN(c1ccc(C(=O)N[C@@H](CCC(=O)N[C@H](CCC(=O)O)C(=O)O)C(=O)O)cc1)[C@H]1CCc2cc3nc(C)[nH]c(=O)c3cc21 [BGC638],Inhibition of thymidylate synthase (TS) within cells,[9],potently inhibit
"Cc1nc2ccc(CN(C)c3ccc(C(=O)N[C@@H](CCC(=O)O)C(=O)O)s3)cc2c(=O)[nH]1 [Raltitrexed, raltitrexed, reference compound]",IC50,[1]; [11],604 ± 53.6 nM
"Nc1nc2[nH]c(CCCCc3ccc(C(=O)N[C@@H](CCC(=O)O)C(=O)O)o3)cc2c(=O)[nH]1 [AAG154489, (S)-2-({5-[4-(2-amino-4-oxo-4,7-dihydro-3H-pyrrolo[2,3-d]pyrimidin-6-yl)-butyl]-furan-2-carbonyl}-amino)-pentanedioic acid]",IC50,[3]; [10],0.3 nM
